Blank lines part the entries; values can stand above or below the compound they belong to. Calls of active or inactive are those of the source. No cut-off for these calls is given here.
Assays:
U-87 MG [1] = test: Antiproliferative activity against human U87 cells overexpressing EGFR variant III measured after 7 days by CCK8 assay; assay type: functional, cell-based, U-87MG ATCC
[2] = Effect on serum triglyceride level in Balb/c nu/nu mouse xenografted with human U87 cells overexpressing EGFR variant III at 50 mg/kg/day, ip for 15 days; assay type: ADME, organism-based; settings: in vivo, 360 h, time 15 day
[3] = molecular target: Retinoic acid receptor RXR-alpha/oxysterols receptor LXR-alpha (Homo sapiens, UniProt Q13133)
Retinoic acid receptor RXR-alpha/oxysterols receptor LXR-alpha, sequence (P19793 whole entry): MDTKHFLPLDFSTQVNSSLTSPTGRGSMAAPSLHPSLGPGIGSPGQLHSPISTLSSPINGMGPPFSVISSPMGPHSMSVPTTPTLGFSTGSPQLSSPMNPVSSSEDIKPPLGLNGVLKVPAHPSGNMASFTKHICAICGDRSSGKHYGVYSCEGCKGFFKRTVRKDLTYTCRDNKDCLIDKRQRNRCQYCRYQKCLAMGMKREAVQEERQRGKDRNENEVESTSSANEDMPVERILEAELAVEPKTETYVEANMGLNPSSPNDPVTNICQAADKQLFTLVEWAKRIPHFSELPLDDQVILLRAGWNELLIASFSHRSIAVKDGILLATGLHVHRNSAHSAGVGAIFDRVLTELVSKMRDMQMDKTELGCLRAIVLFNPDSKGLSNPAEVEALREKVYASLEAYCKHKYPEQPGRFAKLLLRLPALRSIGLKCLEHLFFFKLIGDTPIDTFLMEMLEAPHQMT
Retinoic acid receptor RXR-alpha/oxysterols receptor LXR-alpha, sequence (Q13133 whole entry): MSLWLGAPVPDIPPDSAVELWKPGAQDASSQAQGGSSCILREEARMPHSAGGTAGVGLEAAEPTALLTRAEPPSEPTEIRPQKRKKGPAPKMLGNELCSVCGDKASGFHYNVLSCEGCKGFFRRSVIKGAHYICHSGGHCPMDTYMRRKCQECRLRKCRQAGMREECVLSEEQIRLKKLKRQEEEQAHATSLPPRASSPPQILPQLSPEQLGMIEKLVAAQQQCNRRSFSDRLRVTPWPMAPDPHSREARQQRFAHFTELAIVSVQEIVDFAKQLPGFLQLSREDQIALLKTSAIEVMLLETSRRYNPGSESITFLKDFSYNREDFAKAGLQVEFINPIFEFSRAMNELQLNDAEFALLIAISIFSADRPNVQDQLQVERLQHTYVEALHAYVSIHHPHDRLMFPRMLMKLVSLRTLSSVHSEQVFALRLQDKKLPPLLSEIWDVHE
Description: Agonist activity at human RXRalpha/LXRalpha expressed in HEK293 cells measured after 20 hrs by dual luciferase reporter gene assay

[4] = molecular target: Retinoic acid receptor RXR-alpha/oxysterols receptor LXR-beta (Homo sapiens, UniProt P55055)
Retinoic acid receptor RXR-alpha/oxysterols receptor LXR-beta, sequence (P19793 whole entry): as the sequence (P19793 whole entry) above
Retinoic acid receptor RXR-alpha/oxysterols receptor LXR-beta, sequence (P55055 whole entry): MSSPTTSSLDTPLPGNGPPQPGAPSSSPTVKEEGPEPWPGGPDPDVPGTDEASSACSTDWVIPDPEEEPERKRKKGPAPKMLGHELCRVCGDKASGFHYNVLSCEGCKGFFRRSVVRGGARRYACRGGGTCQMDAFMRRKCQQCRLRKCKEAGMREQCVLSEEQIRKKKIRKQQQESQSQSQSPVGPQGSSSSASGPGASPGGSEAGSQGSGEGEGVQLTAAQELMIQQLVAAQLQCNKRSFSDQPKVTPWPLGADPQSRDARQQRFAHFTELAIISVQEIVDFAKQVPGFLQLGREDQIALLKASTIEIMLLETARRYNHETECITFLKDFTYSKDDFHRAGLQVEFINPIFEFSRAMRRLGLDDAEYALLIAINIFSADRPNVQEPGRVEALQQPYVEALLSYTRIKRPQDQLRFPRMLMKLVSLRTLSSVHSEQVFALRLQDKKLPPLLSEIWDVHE
Description: Agonist activity at human RXRalpha/LXRbeta expressed in HEK293 cells measured after 20 hrs by dual luciferase reporter gene assay

HEK-293T = test: Cytotoxicity against HEK293T cells measured after 7 days by CCK8 assay; assay type: cell-based; settings: human, 168 h, time 7 day
U-87 MG [5] = test: Antiproliferative activity against LXRbeta knock-down human U87 cells overexpressing EGFR variant III measured after 7 days by CCK8 assay; assay type: functional, cell-based; settings: U-87MG ATCC, time 7.0 day
U87 [6] = test: Agonist activity at LXR in human U87 cells overexpressing EGFR variant III assessed as up regulation of IDOL mRNA expression measured after 48 hrs by SYBR green staining based qRT-PCR analysis; assay type: cell-based; settings: filed as agonist
U87 [7] = test: Agonist activity at LXR in human U87 cells overexpressing EGFR variant III assessed as up regulation of SREBP1c mRNA expression measured after 48 hrs by SYBR green staining based qRT-PCR analysis; assay type: cell-based; settings: filed as agonist
U-251 = test: Antiproliferative activity against human U-251 cells measured after 7 days by CCK8 assay; settings: U-251, 168 h
U87 [8] = test: Agonist activity at LXR in human U87 cells overexpressing EGFR variant III assessed as up regulation of ABCG1 mRNA expression measured after 48 hrs by SYBR green staining based qRT-PCR analysis; assay type: cell-based; settings: filed as agonist
U87 [9] = test: Agonist activity at LXR in human U87 cells overexpressing EGFR variant III assessed as up regulation of ABCA1 mRNA expression measured after 48 hrs by SYBR green staining based qRT-PCR analysis; assay type: cell-based; settings: filed as agonist
A 172 = test: Antiproliferative activity against human A 172 cells measured after 7 days by CCK8 assay; settings: A 172, 168 h
U87 [10] = test: Agonist activity at LXR in human U87 cells overexpressing EGFR variant III assessed as up regulation of APOE mRNA expression measured after 48 hrs by SYBR green staining based qRT-PCR analysis; assay type: cell-based; settings: filed as agonist
[11] = Cytotoxicity against human HA1800 cells measured after 7 days by CCK8 assay; assay type: cell-based; settings: ha1800, 168 h, time 7 day
[12] = AUC (0 to infinity) in Sprague-Dawley rat at 10 mg/kg, iv measured after 24 hrs by LC-MS/MS analysis; assay type: ADME, organism-based; design: route intravenous, dose 10 mg/kg, time 24 hrs; settings: in vivo
[13] = Toxicity in Balb/c nu/nu mouse xenografted with human U87 cells overexpressing EGFR variant III assessed as body weight loss at 50 mg/kg/day, ip for 15 days; assay type: organism-based; settings: in vivo, 360 h, time 15 day
[14] = Half life in Sprague-Dawley rat at 10 mg/kg, iv measured after 24 hrs by LC-MS/MS analysis; assay type: ADME, organism-based; settings: in vivo
[15] = AUC (0 to t) in Sprague-Dawley rat at 10 mg/kg, iv measured after 24 hrs by LC-MS/MS analysis; assay type: ADME, organism-based; design: route intravenous, time 24 hrs, dose 10 mg/kg; settings: in vivo
[16] = Tmax in Sprague-Dawley rat at 10 mg/kg, iv measured after 24 hrs by LC-MS/MS analysis; assay type: ADME, organism-based; settings: in vivo
[17] = Cmax in Sprague-Dawley rat at 10 mg/kg, iv measured after 24 hrs by LC-MS/MS analysis; assay type: ADME, organism-based; design: route intravenous, time 24 hrs, dose 10 mg/kg; settings: in vivo
[18] = MRT (infinity) in Sprague-Dawley rat at 10 mg/kg, iv measured after 24 hrs by LC-MS/MS analysis; assay type: ADME, organism-based; settings: in vivo
U-87 MG [19] = test: Antitumor activity against human U87 cells overexpressing EGFR variant III xenografted in Balb/c nu/nu mouse assessed as reduction in tumor size at 50 mg/kg/day, ip for 15 days by caliper method; assay type: functional, organism-based; settings: U-87MG ATCC, time 15.0 day
[20] = Homo sapiens, U-87 MG, 168 h, read-out: IC50

IC50 (U-87 MG [1]; [20]): 7.53 µM
Structure (SMILES): COC(=O)c1ccc(-c2cccc([C@H]3N(C(=O)OC(C)(C)C)CC[C@]34C(=O)Nc3ccccc34)c2)cc1S(C)(=O)=O

IC50 (U-87 MG [1]; u-87mg atcc): Not Active
Structure (SMILES): CC(C)(C)OC(=O)N1CC[C@@]2(C(=O)Nc3ccccc32)[C@@H]1c1cccc(-c2ccccc2)c1

IC50 (U-87 MG [1]; [20]): 3.65 µM
EC50 [3]: 0.000401 µM
EC50 [4]: 0.000228 µM
Structure (SMILES): O=C(O)Cc1cccc(OCCCN(Cc2cccc(C(F)(F)F)c2Cl)CC(c2ccccc2)c2ccccc2)c1
Activity [2]: Toxic

IC50 (U-251): 2.23 µM
IC50 (U-87 MG [1]; [20]): 1.78 µM
Structure (SMILES): CC(C)(C)OC(=O)N1CC[C@]2(C(=O)Nc3ccccc32)[C@H]1c1cccc(Nc2ccc(CO)c(S(C)(=O)=O)c2)c1
Activity (HEK-293T): Non-Toxic
Activity (U-87 MG [5]): inactive
Activity (U87 [6]): Dose-dependent effect
Activity (U87 [7]): Dose-dependent effect
Activity (U87 [8]): Dose-dependent effect
Activity (U87 [9]): Dose-dependent effect
IC50 (A 172): 6.03 µM
Activity (U87 [10]): Dose-dependent effect
Activity [11]: Non-Toxic

IC50 (U-87 MG [1]; u-87mg atcc): Not Active
Structure (SMILES): CC(C)(C)CC(=O)N1CCC2(C(=O)Nc3ccccc32)C1c1cccc(-c2ccc(CO)c(S(C)(=O)=O)c2)c1 (centres undefined)

IC50 (U-87 MG [1]; [20]): 6.36 µM
Structure (SMILES): CC(C)(C)OC(=O)N1CC[C@]2(C(=O)Nc3ccccc32)[C@H]1c1cccc(-c2ccc(CO)c(S(C)(=O)=O)c2)c1

AUC(0-inf) [12]: 1410 ng·h/mL
half-life [14]: 2.98 h
AUC(0-t) at 24 h [15]: 1250 ng·h/mL
Tmax [16]: 0.22 h
IC50 (U-87 MG [1]; [20]): 3.75 µM
Cmax [17]: 1010 ng/mL
MRT inf [18]: 3.48 h
Structure (SMILES): CC(C)(C)OC(=O)N1CCC2(C(=O)Nc3ccccc32)C1c1cccc(Nc2ccc(CO)c(S(C)(=O)=O)c2)c1 (racemic)
Activity [2]: Non-Toxic
Activity [13]: Non-Toxic
Activity (U-87 MG [19]): Active

IC50 (U-87 MG [1]; u-87mg atcc): Not Active
Structure (SMILES): CC(C)(C)OC(=O)N1CC[C@@]2(C(=O)Nc3ccccc32)[C@@H]1c1cccc(Nc2ccc(CO)c(S(C)(=O)=O)c2)c1

IC50 (U-87 MG [1]; [20]): 7.05 µM
Structure (SMILES): CC(C)(C)OC(=O)N1CCC2(C(=O)Nc3ccccc32)C1c1cccc(-c2ccc(CO)c(S(C)(=O)=O)c2)c1 (centres undefined)

IC50 (U-87 MG [1]; u-87mg atcc): Not Active
Structure (SMILES): CC(C)(C)OC(=O)N1CC[C@]2(C(=O)Nc3ccccc32)[C@H]1c1cccc(-c2cccc(S(C)(=O)=O)c2)c1

IC50 (U-87 MG [1]; [20]): 7.78 µM
Structure (SMILES): CC(C)(C)OC(=O)N1CC[C@]2(C(=O)Nc3ccccc32)[C@H]1c1cccc(-c2cc(F)c(CO)c(S(C)(=O)=O)c2)c1

IC50 (U-87 MG [1]; [20]): 13.3 µM
Structure (SMILES): COC(=O)c1ccc(-c2cccc(C3N(C(=O)OC(C)(C)C)CCC34C(=O)Nc3ccccc34)c2)cc1S(C)(=O)=O (centres undefined)

IC50 (U-87 MG [1]; u-87mg atcc): Not Active
Structure (SMILES): CC(C)(C)OC(=O)N1CC[C@@]2(C(=O)Nc3ccccc32)[C@@H]1c1cccc(-c2cc(F)c(CO)c(S(C)(=O)=O)c2)c1

IC50 (U-87 MG [1]; [20]): 22.6 µM
Structure (SMILES): CC(C)(C)OC(=O)N1CCC2(C(=O)Nc3ccccc32)C1c1cccc(-c2ccccc2)c1 (centres undefined)

IC50 (U-87 MG [1]; u-87mg atcc): Not Active
Structure (SMILES): CC(C)(C)CC(=O)N1CC[C@]2(C(=O)Nc3ccccc32)[C@H]1c1cccc(-c2ccc(CO)c(S(C)(=O)=O)c2)c1

IC50 (U-87 MG [1]; u-87mg atcc): Not Active
Structure (SMILES): CN(C)C(=O)c1ccc(-c2cccc([C@H]3N(C(=O)OC(C)(C)C)CC[C@]34C(=O)Nc3ccccc34)c2)cc1Cl

IC50 (U-87 MG [1]; u-87mg atcc): Not Active
Structure (SMILES): CC(C)(C)OC(=O)N1CC[C@]2(C(=O)Nc3ccccc32)[C@H]1c1cccc(-c2ccc(CO)cc2)c1

IC50 (U-87 MG [1]; u-87mg atcc): Not Active
Structure (SMILES): CC(C)(C)OC(=O)N1CC[C@@]2(C(=O)Nc3ccccc32)[C@@H]1c1cccc(-c2ccc(CO)c(S(C)(=O)=O)c2)c1

IC50 (U-251): 3.06 µM
IC50 (U-87 MG [1]; [20]): 6.14 µM
EC50 [3]: 0.000431 µM
EC50 [4]: 0.000212 µM
Structure (SMILES): Fc1ccc(-c2c3cccc(C(F)(F)F)c3nn2Cc2ccc(F)cc2Cl)cc1 [LXR-623]
Activity [2]: Toxic
IC50 (A 172): 8.3 µM

IC50 (U-87 MG [1]; u-87mg atcc): Not Active
Structure (SMILES): CC(C)(C)CC(=O)N1CC[C@@]2(C(=O)Nc3ccccc32)[C@@H]1c1cccc(-c2ccc(CO)c(S(C)(=O)=O)c2)c1

IC50 (U-87 MG [1]; [20]): 8.49 µM
Structure (SMILES): CC(C)(C)OC(=O)N1CCC2(C(=O)Nc3ccccc32)C1c1cccc(-c2cc(F)c(CO)c(S(C)(=O)=O)c2)c1 (centres undefined)

IC50 (U-87 MG [1]; u-87mg atcc): Not Active
Structure (SMILES): COC(=O)c1ccc(-c2cccc([C@@H]3N(C(=O)OC(C)(C)C)CC[C@@]34C(=O)Nc3ccccc34)c2)cc1S(C)(=O)=O
